# Laboratory results as given in ChEMBL document CHEMBL1201862, “PubChem BioAssay data set” (2004).
#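 48-hour exposure; five concentrations; linearly interpolated endpoints. GI50 = concentration required for 50% inhibition of growth.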 Activity calls are given as the source filed them. Rule as the data show it: active = GI50 up to about 1.1 µM and inactive = higher.
# Assays:
# Assay in all cases: DTP human tumour cell line panel, 48 h
# [1] = system: MCF7
# [2] = system: SK-MEL-28
# [3] = system: NCI/ADR-RES
# [4] = system: SK-OV-3
# [5] = system: M14
# [6] = system: SK-MEL-2
# [7] = system: SF-268
# [8] = system: UACC-257
# [9] = system: COLO 205
# [10] = system: MDA-MB-435
# [11] = system: HOP-92
# [12] = system: RPMI-8226
# [13] = system: OVCAR-4
# [14] = system: SN12C
# [15] = system: UO-31
# [16] = system: A498
# [17] = system: SNB-75
# [18] = system: HCT-15
# [19] = system: DU-145
# [20] = system: PC-3
SMILES,GI50 [1],GI50 [2],GI50 [3],GI50 [4],GI50 [5],GI50 [6],GI50 [7],GI50 [8],GI50 [9],GI50 [10],GI50 [11],GI50 [12],GI50 [13],GI50 [14],GI50 [15],GI50 [16],GI50 [17],GI50 [18],GI50 [19],GI50 [20]
COc1cccc(CCn2c(N)c(-c3ccccc3)c3ccc([N+](=O)[O-])cc3c2=O)c1,3.46 µM (inactive),17.5 µM (inactive),1.9 µM (inactive),5.07 µM (inactive),11.2 µM (inactive),16.7 µM (inactive),16.2 µM (inactive),17.3 µM (inactive),2.16 µM (inactive),21.9 µM (inactive),10.3 µM (inactive),0.499 µM (active),1.79 µM (inactive),0.664 µM (active),9.02 µM (inactive),1.82 µM (inactive),2.99 µM (inactive),7.08 µM,13.7 µM (inactive),9.53 µM (inactive)
CN(C1=NS(=O)(=O)N=C(N(C)c2ccccc2)O1)c1ccccc1,15 µM (inactive),22.8 µM (inactive),21.8 µM (inactive),40.1 µM (inactive),18.9 µM (inactive),16.4 µM (inactive),24.5 µM (inactive),19.1 µM (inactive),21.8 µM (inactive),13.8 µM (inactive),23.6 µM (inactive),16.9 µM (inactive),20.8 µM (inactive),18.7 µM (inactive),21.4 µM (inactive),20.5 µM (inactive),16.7 µM (inactive),15.1 µM,21.9 µM (inactive),> 100 µM (inactive)
CC(C)OC(=O)c1cc(NC(=S)OC(C)C)ccc1Cl,20.9 µM (inactive),28.3 µM (inactive),20.7 µM (inactive),37 µM (inactive),35.6 µM (inactive),22.4 µM (inactive),26.9 µM (inactive),21.1 µM (inactive),14.6 µM (inactive),17.1 µM (inactive),18.4 µM (inactive),24.6 µM (inactive),23.9 µM (inactive),13.4 µM (inactive),20.8 µM (inactive),25.9 µM (inactive),19.6 µM (inactive),21.6 µM,30.1 µM (inactive),23.7 µM (inactive)
O=C(c1cccc(OCc2ccccc2)c1OCc1ccccc1)N1CCSC1=S,23 µM (inactive),48.5 µM (inactive),10.6 µM (inactive),30.1 µM (inactive),33.2 µM (inactive),34.6 µM (inactive),11.9 µM (inactive),28.5 µM (inactive),12 µM (inactive),27.2 µM (inactive),18.1 µM (inactive),8.38 µM (inactive),56.5 µM (inactive),19.5 µM (inactive),10.6 µM (inactive),16.5 µM (inactive),5.64 µM (inactive),23.2 µM,28.1 µM (inactive),21 µM (inactive)
CC(=O)N(O)[C@@H]1CC[C@H](n2cnc3c(N)ncnc32)C1,> 100 µM (inactive),> 100 µM (inactive),> 100 µM (inactive),> 100 µM (inactive),> 100 µM (inactive),> 100 µM (inactive),> 100 µM (inactive),> 100 µM (inactive),> 100 µM (inactive),> 100 µM (inactive),> 100 µM (inactive),> 100 µM (inactive),> 100 µM (inactive),> 100 µM (inactive),> 100 µM (inactive),> 100 µM (inactive),> 100 µM (inactive),> 100 µM,> 100 µM (inactive),> 100 µM (inactive)
CCCCCC(=O)OC[n+]1ccc2c(C)c3[nH]c4ccc(OC)cc4c3c(C)c2c1,0.225 µM (active),0.766 µM (active),0.213 µM (active),0.628 µM (active),0.622 µM (active),1.61 µM (inactive),0.211 µM (active),1.28 µM (inactive),0.251 µM (active),0.499 µM (active),1.2 µM (inactive),0.0619 µM (active),0.811 µM (active),0.117 µM (active),0.625 µM (active),1.07 µM (active),1.11 µM (active),0.169 µM,0.505 µM (active),0.193 µM (active)
N=c1ccn2c(n1)OC1C(OP(=O)(O)O)C(CO)OC12 (configuration not stated),1.18 µM (inactive),> 83.4 µM (inactive),22.5 µM (inactive),> 53.6 µM (inactive),1.02 µM (active),> 100 µM (inactive),99.5 µM (inactive),> 30.2 µM (inactive),> 70.6 µM (inactive),> 100 µM (inactive),> 100 µM (inactive),> 100 µM (inactive),> 100 µM (inactive),20.2 µM (inactive),7.64 µM (inactive),10.8 µM (inactive),> 88.3 µM (inactive),> 100 µM,7.31 µM (inactive),> 100 µM (inactive)
O=C(/C=C\c1ccc([N+](=O)[O-])cc1)c1ccccc(=O)c1O,0.277 µM (active),1.41 µM (inactive),0.429 µM (active),4.3 µM (inactive),1.29 µM (inactive),1.89 µM (inactive),0.977 µM (active),1.77 µM (inactive),0.397 µM (active),0.989 µM (active),0.256 µM (active),0.682 µM (active),2.47 µM (inactive),4.81 µM (inactive),1.02 µM (active),2.84 µM (inactive),1.29 µM (inactive),0.169 µM,2.11 µM (inactive),1.95 µM (inactive)
c1ccc(C2=Nn3c(CCCCCCCCc4nnc5n4N=C(c4ccccc4)CS5)nnc3SC2)cc1,> 100 µM (inactive),> 100 µM (inactive),> 79.8 µM (inactive),25.9 µM (inactive),37.6 µM (inactive),32.1 µM (inactive),23.1 µM (inactive),> 100 µM (inactive),> 100 µM (inactive),> 100 µM (inactive),34.2 µM (inactive),> 100 µM (inactive),> 100 µM (inactive),> 88.1 µM (inactive),> 67.3 µM (inactive),39.1 µM (inactive),14.5 µM (inactive),> 100 µM,> 100 µM (inactive),> 100 µM (inactive)
C=CCCC(=O)CC(O)(C(F)(F)F)C(F)(F)F,> 100 µM (inactive),> 100 µM (inactive),> 100 µM (inactive),> 100 µM (inactive),> 100 µM (inactive),> 100 µM (inactive),–,> 100 µM (inactive),> 100 µM (inactive),> 100 µM (inactive),> 100 µM (inactive),> 100 µM (inactive),> 100 µM (inactive),–,> 100 µM (inactive),> 100 µM (inactive),> 100 µM (inactive),> 100 µM,> 100 µM (inactive),> 100 µM (inactive)
C[C@@H]1OC(=O)C[C@H]2CC(=O)N(CCC3CN(C(=O)c4ccccc4)c4ccccc43)C[C@@H]21 (some centres not stated),> 100 µM (inactive),> 100 µM (inactive),> 100 µM (inactive),> 100 µM (inactive),> 100 µM (inactive),> 100 µM (inactive),> 100 µM (inactive),> 100 µM (inactive),> 100 µM (inactive),> 100 µM (inactive),> 100 µM (inactive),> 100 µM (inactive),> 100 µM (inactive),–,> 100 µM (inactive),> 100 µM (inactive),> 100 µM (inactive),> 100 µM,> 100 µM (inactive),> 100 µM (inactive)
Cc1ccc(S(=O)(=O)NC(=O)NCCc2c[nH]cn2)cc1,> 100 µM (inactive),> 100 µM (inactive),> 100 µM (inactive),> 100 µM (inactive),> 100 µM (inactive),> 100 µM (inactive),> 100 µM (inactive),–,> 100 µM (inactive),> 100 µM (inactive),> 100 µM (inactive),> 100 µM (inactive),> 100 µM (inactive),–,> 100 µM (inactive),> 100 µM (inactive),> 100 µM (inactive),> 100 µM,> 100 µM (inactive),> 100 µM (inactive)
N#Cc1ccc(OCc2nc3cc(C(F)(F)F)ccc3nc2-c2ccccc2)cc1,> 100 µM (inactive),> 100 µM (inactive),> 100 µM (inactive),–,> 100 µM (inactive),> 100 µM (inactive),> 100 µM (inactive),> 100 µM (inactive),> 100 µM (inactive),> 100 µM (inactive),> 100 µM (inactive),> 100 µM (inactive),> 100 µM (inactive),> 100 µM (inactive),> 100 µM (inactive),> 100 µM (inactive),> 100 µM (inactive),> 10 µM,> 100 µM (inactive),> 100 µM (inactive)
COc1cccc(-n2nnc3c(N)nc(N)nc32)c1,> 100 µM (inactive),> 100 µM (inactive),> 100 µM (inactive),> 100 µM (inactive),> 100 µM (inactive),> 100 µM (inactive),5.96 µM (inactive),> 100 µM (inactive),> 100 µM (inactive),> 100 µM (inactive),> 100 µM (inactive),> 100 µM (inactive),> 100 µM (inactive),> 100 µM (inactive),–,> 100 µM (inactive),15.7 µM (inactive),> 100 µM,> 100 µM (inactive),> 100 µM (inactive)
CN(C)CCCOC(=O)C(O)(Cc1ccccc1)C1CC1 (configuration not stated),> 100 µM (inactive),> 100 µM (inactive),> 100 µM (inactive),> 100 µM (inactive),> 100 µM (inactive),> 100 µM (inactive),> 100 µM (inactive),> 100 µM (inactive),> 100 µM (inactive),> 100 µM (inactive),> 100 µM (inactive),> 100 µM (inactive),> 100 µM (inactive),> 100 µM (inactive),–,> 100 µM (inactive),79.8 µM (inactive),> 100 µM,> 100 µM (inactive),> 100 µM (inactive)
